# Test results as given in patent publication US4504655A, “Substances potentiating the activity of antibiotics and their production” (Takeda Chemical Industries, Ltd., priority 1981, dated 1985).
# What was measured:
# Format in all cases: cell-based
# [1] = system: Proteus mirabilis ATCC 21100; experiment: Antibiotic-potentiating activity, paper disc growth inhibition zone, Proteus mirabilis ATCC 21100
# Procedure: (§1) *The test was performed using a bouillon agar medium containing the
# antibiotic as specified and a paper disc, 8 mm in diameter. […]
# *The test was performed under the same conditions as noted for Table 1
# except for the test organism and the concentration of each coexisting
# Escherichia coli = experiment: Observation of the culture broths under a phase contrast microscope; conditions: in the presence of cephalexin or cefmenoxime
# Procedure: (§2) To 8 ml of YAB medium (1.75% Difco antibiotic medium No. 3, 0.5% Difco yeast extract) containing 12% (w/v) of sucrose, there were added 1 ml of water, 50 μg/ml cephalexin solution or 10 μg/ml cefmenoxime solution, and the medium was inoculated with 1 ml of a preculture in YAB medium at an early logarithmic growth phase and incubated with shaking at 37° C. for 2 hours. Thereafter, the absorbance of the culture broth was measured at 600 nm using a Shimadzu-Bausch & Lomb Spectronic 20 colorimeter.
# [2] = system: Escherichia coli IFO 12734; experiment: Inhibition of growth of Escherichia coli in liquid culture (absorbance at 600 nm); conditions: 37° C., 2 hours
# [3] = system: Escherichia coli IFO 12734; experiment: as above; conditions: for Absorbance at 600 nm: 37° C., 2 hours
# Procedure: Table 5: Inhibition of growth of Escherichia coli IFO 12734 in the copresence of F2 (obtained in Example 1) and cephalexin or cefmenoxime.
# as §2
# [4] = system: Escherichia coli IFO 12734; experiment: Antibiotic-potentiating activity, paper disc growth inhibition zone, Escherichia coli IFO 12734
# Procedure: The potency of the compound of the formula (II) can be determined, for instance, by the cup method or paper disc method using bouillon agar containing 0.05 μg/ml of cefmenoxime with Escherichia coli IFO 12734 as the test organism. […]
# as §1
# antibiotic as specified and a paper disc, 8 mm in diameter.
# **A paper disc, 8 mm in diameter, was impregnated with 25 μl of the […]
# [5] = F2 of Example 1, 1 μg/ml in test solution, no addition
# [6] = F2 of Example 1, 5 μg/ml in test solution, no addition
# [7] = F2 of Example 1, 25 μg/ml in test solution, no addition
# [8] = F2 of Example 1, 125 μg/ml in test solution, no addition
# [9] = F2 of Example 1, 1000 μg/ml in test solution, no addition
# [10] = F2 of Example 3, 1 μg/ml in test solution, no addition
# [11] = F2 of Example 3, 5 μg/ml in test solution, no addition
# [12] = F2 of Example 3, 25 μg/ml in test solution, no addition
# [13] = F2 of Example 3, 125 μg/ml in test solution, no addition
# [14] = F2 of Example 3, 1000 μg/ml in test solution, no addition
smiles,measurement,setting,value
CC(=O)NC1C(OC2CC(C(=O)NCCS(=O)(=O)O)NC2CO)OC(CO)C(OS(=O)(=O)O)C1O (stereo not drawn) [F2],Diameter of growth inhibition zone,"[1]; F2 of Example 1, 1 μg/ml in test solution, 0.01 μg/ml cefmenoxime",9 mm
same,Diameter of growth inhibition zone,"[1]; F2 of Example 1, 1 μg/ml in test solution, 0.05 μg/ml mecillinam",9 mm
same,Diameter of growth inhibition zone,[1]; [5],< 8 mm
same,Diameter of growth inhibition zone,"[1]; F2 of Example 1, 5 μg/ml in test solution, 0.01 μg/ml cefmenoxime",13 mm
same,Diameter of growth inhibition zone,"[1]; F2 of Example 1, 5 μg/ml in test solution, 0.05 μg/ml mecillinam",11 mm
same,Diameter of growth inhibition zone,[1]; [6],< 8 mm
same,Diameter of growth inhibition zone,"[1]; F2 of Example 1, 25 μg/ml in test solution, 0.01 μg/ml cefmenoxime",23 mm
same,Diameter of growth inhibition zone,"[1]; F2 of Example 1, 25 μg/ml in test solution, 0.05 μg/ml mecillinam",19 mm
same,Diameter of growth inhibition zone,[1]; [7],< 8 mm
same,Diameter of growth inhibition zone,"[1]; F2 of Example 1, 125 μg/ml in test solution, 0.01 μg/ml cefmenoxime",30 mm
same,Diameter of growth inhibition zone,"[1]; F2 of Example 1, 125 μg/ml in test solution, 0.05 μg/ml mecillinam",26 mm
same,Diameter of growth inhibition zone,[1]; [8],< 8 mm
same,Diameter of growth inhibition zone,"[1]; F2 of Example 1, 1000 μg/ml in test solution, 0.01 μg/ml cefmenoxime",38 mm
same,Diameter of growth inhibition zone,"[1]; F2 of Example 1, 1000 μg/ml in test solution, 0.05 μg/ml mecillinam",32 mm
same,Diameter of growth inhibition zone,[1]; [9],< 8 mm
same,Diameter of growth inhibition zone,"[1]; F2 of Example 3, 1 μg/ml in test solution, 0.01 μg/ml cefmenoxime",9 mm
same,Diameter of growth inhibition zone,"[1]; F2 of Example 3, 1 μg/ml in test solution, 0.05 μg/ml mecillinam",9 mm
same,Diameter of growth inhibition zone,[1]; [10],< 8 mm
same,Diameter of growth inhibition zone,"[1]; F2 of Example 3, 5 μg/ml in test solution, 0.01 μg/ml cefmenoxime",12 mm
same,Diameter of growth inhibition zone,"[1]; F2 of Example 3, 5 μg/ml in test solution, 0.05 μg/ml mecillinam",12 mm
same,Diameter of growth inhibition zone,[1]; [11],< 8 mm
same,Diameter of growth inhibition zone,"[1]; F2 of Example 3, 25 μg/ml in test solution, 0.01 μg/ml cefmenoxime",22 mm
same,Diameter of growth inhibition zone,"[1]; F2 of Example 3, 25 μg/ml in test solution, 0.05 μg/ml mecillinam",19 mm
same,Diameter of growth inhibition zone,[1]; [12],< 8 mm
same,Diameter of growth inhibition zone,"[1]; F2 of Example 3, 125 μg/ml in test solution, 0.01 μg/ml cefmenoxime",29 mm
same,Diameter of growth inhibition zone,"[1]; F2 of Example 3, 125 μg/ml in test solution, 0.05 μg/ml mecillinam",25 mm
same,Diameter of growth inhibition zone,[1]; [13],< 8 mm
same,Diameter of growth inhibition zone,"[1]; F2 of Example 3, 1000 μg/ml in test solution, 0.01 μg/ml cefmenoxime",38 mm
same,Diameter of growth inhibition zone,"[1]; F2 of Example 3, 1000 μg/ml in test solution, 0.05 μg/ml mecillinam",32 mm
same,Diameter of growth inhibition zone,[1]; [14],< 8 mm
same,Swelling and bacteriolysis under phase contrast microscope,Escherichia coli,partial swelling occurred and bacteriolysis proceeded
same,Elongation of cells under phase contrast microscope,Escherichia coli; in dependence on the addition level,elongation was inhibited
same,Absorbance at 600 nm,"[2]; final F2 (Example 1) 10 μg/ml, 1 μg/ml cefmenoxime",0.25
same,Absorbance at 600 nm,"[2]; final F2 (Example 1) 10 μg/ml, 5 μg/ml cephalexin",1.00
same,Absorbance at 600 nm,"[2]; final F2 (Example 1) 100 μg/ml, 1 μg/ml cefmenoxime",0.30
same,Absorbance at 600 nm,"[2]; final F2 (Example 1) 100 μg/ml, 5 μg/ml cephalexin",0.95
same,Absorbance at 600 nm,"[2]; final F2 (Example 1) 100 μg/ml, no addition",2.70
same,Absorbance at 600 nm,"[2]; final F2 (Example 3) 1 μg/ml, 1 μg/ml cefmenoxime",0.55
same,Absorbance at 600 nm,"[2]; final F2 (Example 3) 1 μg/ml, 5 μg/ml cephalexin",1.75
same,Absorbance at 600 nm,"[2]; final F2 (Example 3) 1 μg/ml, no addition",2.45
same,Absorbance at 600 nm,"[2]; final F2 (Example 3) 10 μg/ml, 1 μg/ml cefmenoxime",0.25
same,Absorbance at 600 nm,"[2]; final F2 (Example 3) 10 μg/ml, 5 μg/ml cephalexin",1.90
same,Absorbance at 600 nm,"[2]; final F2 (Example 3) 10 μg/ml, no addition",2.50
same,Absorbance at 600 nm,"[2]; final F2 (Example 3) 100 μg/ml, 1 μg/ml cefmenoxime",0.25
same,Absorbance at 600 nm,"[2]; final F2 (Example 3) 100 μg/ml, 5 μg/ml cephalexin",0.75
same,Absorbance at 600 nm,"[2]; final F2 (Example 3) 100 μg/ml, no addition",2.55
same,Absorbance at 600 nm,"[3]; final F2 (Example 1) 1 μg/ml, 1 μg/ml cefmenoxime",0.60
same,Absorbance at 600 nm,"[3]; final F2 (Example 1) 1 μg/ml, 5 μg/ml cephalexin",1.80
same,Absorbance at 600 nm,"[3]; final F2 (Example 1) 1 μg/ml, no addition",2.65
same,Absorbance at 600 nm,"[3]; final F2 (Example 1) 10 μg/ml, no addition",2.65
same,Inhibition of growth of Escherichia coli,"[3]; in the presence of cephalexin or cefmenoxime, decrease in absorbance",inhibits the growth of Escherichia coli
same,Diameter of growth inhibition zone,"[4]; F2 of Example 1, 1 μg/ml in test solution, 0.03 μg/ml mecillinam",< 8 mm
same,Diameter of growth inhibition zone,"[4]; F2 of Example 1, 1 μg/ml in test solution, 0.05 μg/ml cefmenoxime",10 mm
same,Diameter of growth inhibition zone,[4]; [5],< 8 mm
same,Diameter of growth inhibition zone,"[4]; F2 of Example 1, 5 μg/ml in test solution, 0.03 μg/ml mecillinam",10 mm
same,Diameter of growth inhibition zone,"[4]; F2 of Example 1, 5 μg/ml in test solution, 0.05 μg/ml cefmenoxime",15 mm
same,Diameter of growth inhibition zone,[4]; [6],< 8 mm
same,Diameter of growth inhibition zone,"[4]; F2 of Example 1, 25 μg/ml in test solution, 0.03 μg/ml mecillinam",18 mm
same,Diameter of growth inhibition zone,"[4]; F2 of Example 1, 25 μg/ml in test solution, 0.05 μg/ml cefmenoxime",24 mm
same,Diameter of growth inhibition zone,[4]; [7],< 8 mm
same,Diameter of growth inhibition zone,"[4]; F2 of Example 1, 125 μg/ml in test solution, 0.03 μg/ml mecillinam",24 mm
same,Diameter of growth inhibition zone,"[4]; F2 of Example 1, 125 μg/ml in test solution, 0.05 μg/ml cefmenoxime",32 mm
same,Diameter of growth inhibition zone,[4]; [8],< 8 mm
same,Diameter of growth inhibition zone,"[4]; F2 of Example 1, 1000 μg/ml in test solution, 0.03 μg/ml mecillinam",30 mm
same,Diameter of growth inhibition zone,"[4]; F2 of Example 1, 1000 μg/ml in test solution, 0.05 μg/ml cefmenoxime",40 mm
same,Diameter of growth inhibition zone,[4]; [9],< 8 mm
same,Diameter of growth inhibition zone,"[4]; F2 of Example 3, 1 μg/ml in test solution, 0.03 μg/ml mecillinam",< 8 mm
same,Diameter of growth inhibition zone,"[4]; F2 of Example 3, 1 μg/ml in test solution, 0.05 μg/ml cefmenoxime",9 mm
same,Diameter of growth inhibition zone,[4]; [10],< 8 mm
same,Diameter of growth inhibition zone,"[4]; F2 of Example 3, 5 μg/ml in test solution, 0.03 μg/ml mecillinam",9 mm
same,Diameter of growth inhibition zone,"[4]; F2 of Example 3, 5 μg/ml in test solution, 0.05 μg/ml cefmenoxime",14 mm
same,Diameter of growth inhibition zone,[4]; [11],< 8 mm
same,Diameter of growth inhibition zone,"[4]; F2 of Example 3, 25 μg/ml in test solution, 0.03 μg/ml mecillinam",19 mm
same,Diameter of growth inhibition zone,"[4]; F2 of Example 3, 25 μg/ml in test solution, 0.05 μg/ml cefmenoxime",23 mm
same,Diameter of growth inhibition zone,[4]; [12],< 8 mm
same,Diameter of growth inhibition zone,"[4]; F2 of Example 3, 125 μg/ml in test solution, 0.03 μg/ml mecillinam",23 mm
same,Diameter of growth inhibition zone,"[4]; F2 of Example 3, 125 μg/ml in test solution, 0.05 μg/ml cefmenoxime",31 mm
same,Diameter of growth inhibition zone,[4]; [13],< 8 mm
same,Diameter of growth inhibition zone,"[4]; F2 of Example 3, 1000 μg/ml in test solution, 0.03 μg/ml mecillinam",29 mm
same,Diameter of growth inhibition zone,"[4]; F2 of Example 3, 1000 μg/ml in test solution, 0.05 μg/ml cefmenoxime",39 mm
same,Diameter of growth inhibition zone,[4]; [14],< 8 mm
